Laboratory results reported in the supplement of paper PMC10307832.

Columns and labels:
Assay in all cases: relative viability (nuclei count vs DMSO), 5 days (fraction); higher = more cells survive
[1] = compound: C/C(=N\NC(=S)N1CCC1)/C2=CC=CC=N2 + CCNC(=O)c1noc(-c2cc(C(C)C)c(O)cc2O)c1-c1ccc(CN2CCOCC2)cc1 [Luminespib] (partner 0.01 µM)
Method in brief: (§1)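 Lung cancer cell lines, seeded in 1536-well plates, were treated the following day by pin tool with a single drug or with five library-drug doses (not always all listed) in √10 steps on top of a fixed anchor-drug dose. Cells were fixed and nuclei stained in one step after 5 days, and nuclei were counted. Relative viability is the nuclei count for treated wells divided by that for vehicle wells, reported as medians of duplicate plates.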

[2] = compound: C/C(=N\NC(=S)N1CCC1)/C2=CC=CC=N2 + CS(=O)(=O)CCNCc1ccc(-c2ccc3ncnc(Nc4ccc(OCc5cccc(F)c5)c(Cl)c4)c3c2)o1 [Lapatinib] (partner 2 µM)
Method in brief: as §1

[3] = compound: C/C(=N\NC(=S)N1CCC1)/C2=CC=CC=N2 + Nc1ncn([C@H]2C[C@H](O)[C@@H](CO)O2)c(=O)n1 [Decitabine] (partner 2 µM)
Method in brief: as §1

[4] = compound: C/C(=N\NC(=S)N1CCC1)/C2=CC=CC=N2 + O=C(c1cc(Cc2n[nH]c(=O)c3ccccc23)ccc1F)N1CCN(C(=O)C2CC2)CC1 [Olaparib] (partner 8 µM)
Method in brief: as §1

NCI-H358
relative viability ([1]; first compound 0.05 µM): 0.0782 | relative viability ([1]; first compound 0.1581 µM): 0.118 | relative viability ([1]; first compound 0.5 µM): 0.144 | relative viability ([1]; first compound 1.581 µM): 0.108 | relative viability ([1]; first compound 5 µM): 0.0871 | relative viability ([2]; first compound 0.05 µM): 0.233 | relative viability ([2]; first compound 0.1581 µM): 0.247 | relative viability ([2]; first compound 0.5 µM): 0.244 | relative viability ([2]; first compound 1.581 µM): 0.193 | relative viability ([2]; first compound 5 µM): 0.199 | relative viability ([3]; first compound 0.05 µM): 0.114 | relative viability ([3]; first compound 0.1581 µM): 0.12 | relative viability ([3]; first compound 0.5 µM): 0.0978 | relative viability ([3]; first compound 1.581 µM): 0.0977 | relative viability ([3]; first compound 5 µM): 0.0971 | relative viability ([4]; first compound 0.05 µM): 0.0853 | relative viability ([4]; first compound 0.1581 µM): 0.0833 | relative viability ([4]; first compound 0.5 µM): 0.0714 | relative viability ([4]; first compound 1.581 µM): 0.0722 | relative viability ([4]; first compound 5 µM): 0.067

NCI-H1915
relative viability ([1]; first compound 0.05 µM): 0.126 | relative viability ([1]; first compound 0.1581 µM): 0.108 | relative viability ([1]; first compound 0.5 µM): 0.111 | relative viability ([1]; first compound 1.581 µM): 0.121 | relative viability ([1]; first compound 5 µM): 0.107 | relative viability ([2]; first compound 0.05 µM): 0.195 | relative viability ([2]; first compound 0.1581 µM): 0.182 | relative viability ([2]; first compound 0.5 µM): 0.157 | relative viability ([2]; first compound 1.581 µM): 0.136 | relative viability ([2]; first compound 5 µM): 0.133 | relative viability ([3]; first compound 0.05 µM): 0.115 | relative viability ([3]; first compound 0.1581 µM): 0.123 | relative viability ([3]; first compound 0.5 µM): 0.144 | relative viability ([3]; first compound 1.581 µM): 0.124 | relative viability ([3]; first compound 5 µM): 0.148 | relative viability ([4]; first compound 0.05 µM): 0.155 | relative viability ([4]; first compound 0.1581 µM): 0.12 | relative viability ([4]; first compound 0.5 µM): 0.127 | relative viability ([4]; first compound 1.581 µM): 0.122 | relative viability ([4]; first compound 5 µM): 0.137

RERF-LC-KJ
relative viability ([1]; first compound 0.05 µM): 0.343 | relative viability ([1]; first compound 0.1581 µM): 0.306 | relative viability ([1]; first compound 0.5 µM): 0.272 | relative viability ([1]; first compound 1.581 µM): 0.265 | relative viability ([1]; first compound 5 µM): 0.294 | relative viability ([2]; first compound 0.05 µM): 0.258 | relative viability ([2]; first compound 0.1581 µM): 0.263 | relative viability ([2]; first compound 0.5 µM): 0.23 | relative viability ([2]; first compound 1.581 µM): 0.253 | relative viability ([2]; first compound 5 µM): 0.275 | relative viability ([3]; first compound 0.05 µM): 0.234 | relative viability ([3]; first compound 0.1581 µM): 0.235 | relative viability ([3]; first compound 0.5 µM): 0.215 | relative viability ([3]; first compound 1.581 µM): 0.283 | relative viability ([3]; first compound 5 µM): 0.247 | relative viability ([4]; first compound 0.05 µM): 0.255 | relative viability ([4]; first compound 0.1581 µM): 0.248 | relative viability ([4]; first compound 0.5 µM): 0.274 | relative viability ([4]; first compound 1.581 µM): 0.271 | relative viability ([4]; first compound 5 µM): 0.255

LOU-NH91
relative viability ([1]; first compound 0.05 µM): 0.257 | relative viability ([1]; first compound 0.1581 µM): 0.293 | relative viability ([1]; first compound 0.5 µM): 0.274 | relative viability ([1]; first compound 1.581 µM): 0.185 | relative viability ([1]; first compound 5 µM): 0.264 | relative viability ([2]; first compound 0.05 µM): 0.399 | relative viability ([2]; first compound 0.1581 µM): 0.434 | relative viability ([2]; first compound 0.5 µM): 0.487 | relative viability ([2]; first compound 1.581 µM): 0.383 | relative viability ([2]; first compound 5 µM): 0.357 | relative viability ([3]; first compound 0.05 µM): 0.625 | relative viability ([3]; first compound 0.1581 µM): 0.626 | relative viability ([3]; first compound 0.5 µM): 0.579 | relative viability ([3]; first compound 1.581 µM): 0.462 | relative viability ([3]; first compound 5 µM): 0.495 | relative viability ([4]; first compound 0.05 µM): 0.482 | relative viability ([4]; first compound 0.1581 µM): 0.562 | relative viability ([4]; first compound 0.5 µM): 0.458 | relative viability ([4]; first compound 1.581 µM): 0.44 | relative viability ([4]; first compound 5 µM): 0.451

NCI-H2347
relative viability ([1]; first compound 0.05 µM): 0.263 | relative viability ([1]; first compound 0.1581 µM): 0.238 | relative viability ([1]; first compound 0.5 µM): 0.213 | relative viability ([1]; first compound 1.581 µM): 0.251 | relative viability ([1]; first compound 5 µM): 0.235 | relative viability ([2]; first compound 0.05 µM): 0.401 | relative viability ([2]; first compound 0.1581 µM): 0.394 | relative viability ([2]; first compound 0.5 µM): 0.324 | relative viability ([2]; first compound 1.581 µM): 0.294 | relative viability ([2]; first compound 5 µM): 0.541 | relative viability ([3]; first compound 0.05 µM): 0.363 | relative viability ([3]; first compound 0.1581 µM): 0.335 | relative viability ([3]; first compound 0.5 µM): 0.34 | relative viability ([3]; first compound 1.581 µM): 0.349 | relative viability ([3]; first compound 5 µM): 0.367 | relative viability ([4]; first compound 0.05 µM): 0.334 | relative viability ([4]; first compound 0.1581 µM): 0.294 | relative viability ([4]; first compound 0.5 µM): 0.298 | relative viability ([4]; first compound 1.581 µM): 0.274 | relative viability ([4]; first compound 5 µM): 0.28

NCI-H2126
relative viability ([1]; first compound 0.05 µM): 0.201 | relative viability ([1]; first compound 0.1581 µM): 0.201 | relative viability ([1]; first compound 0.5 µM): 0.198 | relative viability ([1]; first compound 1.581 µM): 0.178 | relative viability ([1]; first compound 5 µM): 0.225 | relative viability ([2]; first compound 0.05 µM): 0.242 | relative viability ([2]; first compound 0.1581 µM): 0.272 | relative viability ([2]; first compound 0.5 µM): 0.249 | relative viability ([2]; first compound 1.581 µM): 0.236 | relative viability ([2]; first compound 5 µM): 0.241 | relative viability ([3]; first compound 0.05 µM): 0.292 | relative viability ([3]; first compound 0.1581 µM): 0.599 | relative viability ([3]; first compound 0.5 µM): 0.222 | relative viability ([3]; first compound 1.581 µM): 0.226 | relative viability ([3]; first compound 5 µM): 0.247 | relative viability ([4]; first compound 0.05 µM): 0.344 | relative viability ([4]; first compound 0.1581 µM): 0.889 | relative viability ([4]; first compound 0.5 µM): 0.186 | relative viability ([4]; first compound 1.581 µM): 0.191 | relative viability ([4]; first compound 5 µM): 0.17

HCC-827
relative viability ([1]; first compound 0.05 µM): 0.254 | relative viability ([1]; first compound 0.1581 µM): 0.468 | relative viability ([1]; first compound 0.5 µM): 0.163 | relative viability ([1]; first compound 1.581 µM): 0.124 | relative viability ([1]; first compound 5 µM): 0.188 | relative viability ([2]; first compound 0.05 µM): 0.161 | relative viability ([2]; first compound 0.1581 µM): 0.168 | relative viability ([2]; first compound 0.5 µM): 0.201 | relative viability ([2]; first compound 1.581 µM): 0.211 | relative viability ([2]; first compound 5 µM): 0.19 | relative viability ([3]; first compound 0.05 µM): 0.253 | relative viability ([3]; first compound 0.1581 µM): 0.244 | relative viability ([3]; first compound 0.5 µM): 0.237 | relative viability ([3]; first compound 1.581 µM): 0.182 | relative viability ([3]; first compound 5 µM): 0.185 | relative viability ([4]; first compound 0.05 µM): 0.333 | relative viability ([4]; first compound 0.1581 µM): 0.227 | relative viability ([4]; first compound 0.5 µM): 0.203 | relative viability ([4]; first compound 1.581 µM): 0.145 | relative viability ([4]; first compound 5 µM): 0.175

NCI-H3122
relative viability ([1]; first compound 0.05 µM): 0.0803 | relative viability ([1]; first compound 0.1581 µM): 0.063 | relative viability ([1]; first compound 0.5 µM): 0.0978 | relative viability ([1]; first compound 1.581 µM): 0.134 | relative viability ([1]; first compound 5 µM): 0.11 | relative viability ([2]; first compound 0.05 µM): 0.304 | relative viability ([2]; first compound 0.1581 µM): 0.284 | relative viability ([2]; first compound 0.5 µM): 0.268 | relative viability ([2]; first compound 1.581 µM): 0.291 | relative viability ([2]; first compound 5 µM): 0.243 | relative viability ([3]; first compound 0.05 µM): 0.0981 | relative viability ([3]; first compound 0.1581 µM): 0.269 | relative viability ([3]; first compound 0.5 µM): 0.086 | relative viability ([3]; first compound 1.581 µM): 0.127 | relative viability ([3]; first compound 5 µM): 0.136 | relative viability ([4]; first compound 0.05 µM): 0.118 | relative viability ([4]; first compound 0.1581 µM): 0.291 | relative viability ([4]; first compound 0.5 µM): 0.0987 | relative viability ([4]; first compound 1.581 µM): 0.145 | relative viability ([4]; first compound 5 µM): 0.142

HOP-62
relative viability ([1]; first compound 0.05 µM): 0.215 | relative viability ([1]; first compound 0.1581 µM): 0.12 | relative viability ([1]; first compound 0.5 µM): 0.151 | relative viability ([1]; first compound 1.581 µM): 0.129 | relative viability ([1]; first compound 5 µM): 0.119 | relative viability ([2]; first compound 0.05 µM): 0.0752 | relative viability ([2]; first compound 0.1581 µM): 0.0868 | relative viability ([2]; first compound 0.5 µM): 0.0479 | relative viability ([2]; first compound 1.581 µM): 0.0716 | relative viability ([2]; first compound 5 µM): 0.0698 | relative viability ([3]; first compound 0.05 µM): 0.121 | relative viability ([3]; first compound 0.1581 µM): 0.142 | relative viability ([3]; first compound 0.5 µM): 0.0886 | relative viability ([3]; first compound 1.581 µM): 0.106 | relative viability ([3]; first compound 5 µM): 0.117 | relative viability ([4]; first compound 0.05 µM): 0.079 | relative viability ([4]; first compound 0.1581 µM): 0.0776 | relative viability ([4]; first compound 0.5 µM): 0.0561 | relative viability ([4]; first compound 1.581 µM): 0.0753 | relative viability ([4]; first compound 5 µM): 0.0802

HCC-44
relative viability ([1]; first compound 0.05 µM): 0.326 | relative viability ([1]; first compound 0.1581 µM): 0.307 | relative viability ([1]; first compound 0.5 µM): 0.283 | relative viability ([1]; first compound 1.581 µM): 0.32 | relative viability ([1]; first compound 5 µM): 0.242 | relative viability ([2]; first compound 0.05 µM): 0.292 | relative viability ([2]; first compound 0.1581 µM): 0.184 | relative viability ([2]; first compound 0.5 µM): 0.177 | relative viability ([2]; first compound 1.581 µM): 0.156 | relative viability ([2]; first compound 5 µM): 0.232 | relative viability ([3]; first compound 0.05 µM): 0.559 | relative viability ([3]; first compound 0.1581 µM): 0.544 | relative viability ([3]; first compound 0.5 µM): 0.52 | relative viability ([3]; first compound 1.581 µM): 0.551 | relative viability ([3]; first compound 5 µM): 0.428 | relative viability ([4]; first compound 0.05 µM): 0.863 | relative viability ([4]; first compound 0.1581 µM): 0.918 | relative viability ([4]; first compound 0.5 µM): 0.541 | relative viability ([4]; first compound 1.581 µM): 0.517 | relative viability ([4]; first compound 5 µM): 0.446
